# Several values for one entry are separate records, joined by “and”; a condition that tells them apart may be missing. Equal values may be shown once. Read-outs that look alike come from different tables or passages of the source.
# How the values were obtained:
# [1] = tested on: Aspergillus niger ATCC 16404; test: MIC by agar dilution (antifungal); format: cell-based
# Protocol: (§1) The MICs of the synthesized compound were determined by agar dilution method according to the Clinical Laboratory and Standards Institute Guidelines (CLSI, 2015). Briefly, the tested strains were incubated overnight in tryptic soy broth (TSB) (Oxoid, United Kingdom) and then diluted in Muller–Hinton (MH) broth (Oxoid, United Kingdom) to turbidity approximating to the equivalent of 0.5 McFarland standard. The suspensions were further diluted with sterile saline (1:10) and standardized inoculums (approximately 10^4 CFU per spot) were spotted on the surfaces of MH agar (Oxoid, United Kingdom) plates containing different concentrations of tested compounds and a control plate. The MICs were the lowest concentrations that inhibit growth on the plates after incubation at 37 °C for 20 h.
# HepG-2 = test: SRB cellular proliferation assay; format: cell-based, human; details: mean ± SD (n = 3)
# Protocol: (§2) The pancreatic human cancer cell lines BxPC-3 and Panc-1, the human hepatocellular carcinoma (HepG-2), and the normal immortalized pancreatic cell line HPDE, that were used in this study, were obtained from the American Type Culture Collection (Rockville, USA). Cell lines were cultured and treated with the tested compounds or dimethyl sulfoxide (DMSO) as previously described. Cells were cultivated in DMEM medium (Invitrogen, Carlsbad, CA, USA), supplemented with streptomycin, penicillin and fetal bovine serum (FCS) (Invitrogen, Carlsbad, CA, USA). The sulforhodamine B (SRB) assay was employed to assess the anti-proliferative effects of tested compounds on cancer cells. Cell lines were incubated and regularly treated with DMSO or increasing doses of tested compounds for 48 h. The cells were fixed with 10% trichloroacetic acid and stained with SRB fluorescent dye for 30 min. Then, the bounded SRB dye to cellular proteins was dissolved in 10 mM Tris base after washing excess dye with 1% acetic acid. The absorbance was measured at 510 nm in a reader (Biotek, Winooski, VT, USA).
# BxPC-3 = test: SRB cellular proliferation assay; format: cell-based, human; details: BxPC-3 cells, mean ± SD (n = 3)
# Protocol: as §2
# Panc-1 = test: SRB cellular proliferation assay; format: cell-based, human; details: Panc-1 cells, mean ± SD (n = 3)
# Protocol: as §2
# HPDE = test: SRB cell viability assay, normal cells; format: cell-based
# Protocol: Firstly, to determine the cell viability, HPDE cell lines were treated with all new synthesized compounds 9a–k for 96 h using sulforhodamine B (SRB) assay. All newly synthesized compounds were proven non-toxic with IC50 more than […] (Table 2).
# The pancreatic human cancer cell lines BxPC-3 and Panc-1, the human hepatocellular carcinoma (HepG-2), and the normal immortalized pancreatic cell line HPDE, that were used in this study, were obtained from the American Type Culture Collection (Rockville, USA). Cell lines were cultured and treated with the tested compounds or dimethyl sulfoxide (DMSO) as previously described. Cells were cultivated in DMEM medium (Invitrogen, Carlsbad, CA, USA), supplemented with streptomycin, penicillin and fetal bovine serum (FCS) (Invitrogen, Carlsbad, CA, USA).
# The sulforhodamine B (SRB) assay was employed to assess the anti-proliferative effects of tested compounds on cancer cells. Cell lines were incubated and regularly treated with DMSO or increasing doses of tested compounds for 48 h. The cells were fixed with 10% trichloroacetic acid and stained with SRB fluorescent dye for 30 min. Then, the bounded SRB dye to cellular proteins was dissolved in 10 mM Tris base after washing excess dye with 1% acetic acid. The absorbance was measured at 510 nm in a reader (Biotek, Winooski, VT, USA).
# [2] = tested on: Staphylococcus epidermidis ATCC 12228; test: MIC by agar dilution; format: cell-based; details: 20 h
# Protocol: as §1
# [3] = tested on: Micrococcus spp. ATCC 10240; test: MIC by agar dilution; format: cell-based; details: 20 h
# Protocol: as §1
# [4] = tested on: Klebsiella pneumoniae ATCC 27736; test: MIC by agar dilution; format: cell-based; details: 20 h
# Protocol: as §1
# [5] = tested on: Salmonella typhimurium ATCC 14028; test: MIC by agar dilution; format: cell-based; details: 37 °C, 20 h
# Protocol: as §1
# [6] = tested on: Staphylococcus aureus ATCC 6538; test: MIC by agar dilution; format: cell-based; details: 20 h
# Protocol: as §1
# [7] = tested on: Escherichia coli ATCC 10536; test: MIC by agar dilution; format: cell-based; details: 20 h
# Protocol: as §1
# [8] = tested on: Pseudomonas aeruginosae ATCC 47085; test: MIC by agar dilution; format: cell-based, Pseudomonas aeruginosa; details: 20 h
# Protocol: as §1
# [9] = tested on: Candida albicans ATCC 10231; test: MIC by agar dilution (antifungal); format: cell-based; details: Candida albicans ATCC 10231
# Protocol: as §1
compound,measurement,setting,value
"Cc1ccc(S(=O)(=O)Nc2ccccc2C2=N/C(=C/c3ccncc3)C(=O)O2)cc1 [Compound 9k, (E)-4-Methyl-N-(2-(5-oxo-4-(pyridin-4-ylmethylene)-4,5-dihydrooxazol-2-yl)phenyl)benzenesulfonamide]",MIC,"[1]; ATCC16404, 20 h, read-out: Minimum inhibitory concentration (MIC)",16 µg/mL
same,MIC,"[1]; ATCC16404, read-out: Minimum inhibitory concentration (MIC)",> 32 µg/mL
same,IC50,"HepG-2; Homo sapiens, HepG2, HepG-2 cells, read-out: IC50",33.1 ± 5.12 µg/mL
same,IC50,"BxPC-3; Homo sapiens, read-out: IC50",7.27 ± 1.49 µg/mL
same,IC50,"Panc-1; Homo sapiens, read-out: IC50",19.9 ± 3.35 µg/mL
same,IC50,"HPDE; normal HPDE cells, read-out: IC50",> 50 µg/mL
same,melting point,,210 to 212 °C
same,MIC,"[2]; ATCC12228, 37 °C, read-out: Minimum inhibitory concentration (MIC)",4 µg/mL
same,MIC,"[3]; ATCC10240, 37 °C, read-out: Minimum inhibitory concentration (MIC)",2 µg/mL
same,MIC,"[4]; ATCC27736, 37 °C, read-out: Minimum inhibitory concentration (MIC)",> 32 µg/mL
same,MIC,"[5]; Salmonella enterica, read-out: Minimum inhibitory concentration (MIC)",> 32 µg/mL
same,MIC,"[6]; ATCC6538, 37 °C, read-out: Minimum inhibitory concentration (MIC)",4 µg/mL
same,MIC,"[7]; ATCC10536, 37 °C, read-out: Minimum inhibitory concentration (MIC)",16 µg/mL
same,MIC,"[8]; ATCC47085, 37 °C, read-out: Minimum inhibitory concentration (MIC)",> 32 µg/mL
"(E)-4-Methyl-N-(2-(4-(naphthalen-1-ylmethylene)-5-oxo-4,5-dihydrooxazol-2-yl)phenyl)benzenesulfonamide [Compound 9h]",Minimum inhibitory concentration (MIC),[9],4 µg/mL and 2 µg/mL
same,Minimum inhibitory concentration (MIC),[1],8 µg/mL and 4 µg/mL
same,IC50,HepG-2; HepG-2 cells,17.34 ± 0.96 µg/mL
same,IC50,BxPC-3,12.60 ± 0.62 µg/mL
same,IC50,Panc-1,14.72 ± 2.87 µg/mL
same,IC50,"HPDE; HPDE normal immortalized cell line, 96 h",>50000 µg/mL
same,Minimum inhibitory concentration (MIC),[2]; 37 °C,>32 µg/mL
same,Minimum inhibitory concentration (MIC),[3]; 37 °C,>32 µg/mL
same,Minimum inhibitory concentration (MIC),[4]; 37 °C,>32 µg/mL
same,Minimum inhibitory concentration (MIC),[5],>32 µg/mL
same,Minimum inhibitory concentration (MIC),[6]; 37 °C,>32 µg/mL
same,Minimum inhibitory concentration (MIC),[7]; 37 °C,>32 µg/mL
same,Minimum inhibitory concentration (MIC),[8]; 37 °C,>32 µg/mL

# Source: PMC8838850, “Synthesis, Antimicrobial, Anti-Virulence and Anticancer Evaluation of New 5(4H)-Oxazolone-Based Sulfonamides” (Molecules, 2022)
